A word on the Ki: it is the dissociation constant of the complex between target and ligand, obtained from inhibition or displacement. As a reminder, the Km is the substrate concentration at which the rate is half of its maximum.

The values that follow come from patent publication US5202456A, “Compounds for inhibition of protein methylation” (The President and Fellows of Harvard College, priority 1991, dated 1993).

The target of the assay is T1, ROS methyltransferase (bovine retinal rod outer segment S-adenosyl-L-methionine-dependent methyltransferase) (Bos taurus, UniProt A0AAA9SD88).
T1 construct: utilizing ROS membranes as the source of methyltransferase enzyme; tissue Wanda Lawson Co., Lincoln, Nebr; (frozen bovine retinas); host or cells: bovine retinal rod outer segment (ROS) membranes
T1 sequence (A0AAA9SD88 1-284): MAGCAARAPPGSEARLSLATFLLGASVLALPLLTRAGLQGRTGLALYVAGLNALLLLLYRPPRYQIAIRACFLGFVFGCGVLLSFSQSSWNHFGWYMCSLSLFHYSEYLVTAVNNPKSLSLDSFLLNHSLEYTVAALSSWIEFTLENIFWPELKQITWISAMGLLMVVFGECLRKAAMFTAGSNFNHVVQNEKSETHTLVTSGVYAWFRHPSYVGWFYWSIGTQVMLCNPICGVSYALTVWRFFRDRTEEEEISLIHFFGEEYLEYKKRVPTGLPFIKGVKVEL
Kind of assay: ROS methyltransferase assay: compounds as substrates (Km) or inhibitors (Ki) of AFC methylation. The class given is biochemical. The protocol: Standard assays may be used to determine Km for substrates and Ki for inhibitors. […] The values of Ki and Km are calculated from kinetic assays by conventional means (Fersht, Enzyme Structure and Mechanism, W. H. Freeman and Co., New York, 1984). Examples are provided below to illustrate suitable assays, and are not intended to limit the invention.
One suitable assay of methylation functions uses bovine retinal rod outer segment (ROS) methyltransferase and a natural substrate, transducin. […] Another suitable assay uses N-acetyl-S-farnesylcysteine as a substrate for ROS methyltransferase.
The bovine retinal transducin γ subunit has a carboxyl-terminal --CAAX motif and undergoes a farnesylation reaction similar to that observed on ras (Lai et al., Proc. Natl. Acad. Sci. USA 87:7673, 1990; Fukada et al., Nature 346:658, 1990).
Frozen bovine retinas (Wanda Lawson Co., Lincoln, Nebr.) were used to prepare ROS membranes depleted of peripheral proteins using a modification of the procedure of Wessling-Resnick et al. (J. Biol. Chem. 262:3697, 1987). Briefly, ROS membranes were washed with low ionic strength buffer and 100μM GTP, resuspended in 50 mM Hepes-Na (pH 7.4), 100 mM NaCl, 5 mM MgCl2, 0.1 mM phenylmethylsulfonyl fluoride, 0.1 mM dithiothreitol (buffer A) and stored in small aliquots at -80° C. until used. Transducin was isolated by disrupting ROS membranes by passing the membranes through a narrow needle and washing the disrupted membranes in a series of centrifugation steps as described by Wessling-Resnick et al. (J. Biol. Chem. 262:3697, 1987). Finally transducin was eluted from the membranes with 100μM GTP. The transducin-enriched supernatant was concentrated using Centriprep (Amicon).
For initial studies, the reaction mixture contained 20 μCi of S-adenosyl-[methyl-^3 H] methionine ([^3 H]SAM) (2.34 μM, Amersham) and an aliquot of ROS (120μg of total protein) or of washed ROS membranes (80μg of total protein) in 100 μl of buffer A. Purified transducin was added to this mixture to a concentration of 5 μM. AFC, N-acetylcysteine, or AFC methylester was added in 2 μl of dimethyl sulfoxide to give a final concentration of 20 μM, and the reaction was carried out at 37° C.
The above-described methyltransferase assay was used to analyze the analogs described above.

[1] abbreviates: Table 1, conventional inhibitors, read-out: Ki.
The mark [2] stands for this setting: Table 1, substrates, read-out: Km.

“Also recorded” adds a separate entry of the source. Read-outs that look alike come from different tables or passages of the source.

As for `CC(C)=CCC/C(C)=C/CC/C(C)=C/CSC[C@H](NC(=O)c1ccccc1)C(=O)O` [N-benzoyl-S-farnesylcysteine], where the note is “Table 1”, the “status as substrate (in place of Km)” value is listed as “substrate”.
For the molecule disodium 2-farnesylthioethyl phosphate, the “status as conventional inhibitor (in place of Ki)” value (“status as conventional inhibitor” below) (Table 1) was “inhibitor”.
Turning to `CCCCCCC(CC(=O)O)SC/C=C(\C)CC/C=C(\C)CCC=C(C)C` (stereo not drawn) [3-farnesylthiononanoic acid], the “status as conventional inhibitor” value (Table 1) is “inhibitor”.
Consider `CC(C)=CCC/C(C)=C/CC/C(C)=C/C[S+]([O-])CC(=O)O` (stereo not drawn) [2-farnesylthioacetic acid sulfoxide], for which, under setting [1], the Ki was less than 10 µM.
Consider `CC(=O)N[C@H](CSC/C=C(\C)CC/C=C(\C)CCC=C(C)C)C(=O)O` [N-acetyl-S-farnesyl-D-cysteine], for which the Km under setting [2] was 42 µM.
Regarding “3-farnesylthiocyclohexanecarboxylic acid”, the “status as conventional inhibitor” value (Table 1) is reported as “inhibitor”.
N-acetylgeranylgeranylcysteine: the “status as substrate (in place of Km)” value (Table 1) was “substrate”.
On to `CC(C)=CCC/C(C)=C/CC/C(C)=C/CS/C=C\C(=O)O` [3-farnesylthio-cis-acrylic acid], for which the Ki under setting [1] turned out to be 40 µM.
For the molecule `CC(C)=CCC/C(C)=C/CC/C(C)=C/COCCC(=O)O` [3-farnesyloxypropionic acid], the Km under setting [2] worked out at 26 µM.
For the molecule `CC(=O)NC(C[Se]C/C=C(\C)CC/C=C(\C)CCC=C(C)C)C(=O)O` (racemic) [N-acetyl-Se-farnesyl-D,L-cysteine], the Km (Table 1, substrates) amounted to 51 µM.
Regarding `C[S+](CC[C@H](N)C(=O)O)C[C@H]1O[C@@H](n2cnc3c(N)ncnc32)[C@H](O)[C@@H]1O` (stereo partly drawn) [AdoMet, S-adenosyl-L-methionine, reference compound], the Michaelis constant (Km) (AFC system, ROS membranes, read-out: apparent KM) was determined as 2 µM.
With `CC(C)=CCC/C(C)=C/CC/C(C)=C/CSCC(N)C(=O)O` (stereo not drawn) [S-farnesylcysteine], the “status as conventional inhibitor” value (Table 1) is “inhibitor”.
The same measure, in the same setting: with `CSC(CSC/C=C(\C)CC/C=C(\C)CCC=C(C)C)=NO` [2-farnesylthio-S-methyl] the entry was “inhibitor”.
Consider `CC(=O)N[C@@H](CSC/C=C(\C)CCC=C(C)C)C(=O)O` [AGC, N-acetyl-S-geranyl-L-cysteine], for which the “status as substrate (in place of Km)” value (Table 1) is reported as “substrate”. In addition, the “substrate activity for ROS methyltransferase” value (from here on “substrate activity”) (in words) is “exceedingly weak substrate; also recorded: marginal activity”.
Turning to `CC(C)=CCC/C(C)=C/CC/C(C)=C/CSCC(C)[N+](=O)[O-]` (stereo not drawn) [3-farnesylthio-2-nitropropane], the “status as conventional inhibitor” value (Table 1) was “inhibitor”.
In the case of `CC(C)=CCC/C(C)=C/CC/C(C)=C/CSCCC#N` [3-farnesylthiopropionitrile], the “status as conventional inhibitor” value (Table 1) is “inhibitor”.
As for `CC(=O)N[C@@H](C[S+]([O-])C/C=C(\C)CC/C=C(\C)CCC=C(C)C)C(=O)O` (stereo partly drawn) [AFCS, N-acetyl-S-oxo-farnesylcysteine], under setting [1], the Ki was 13.2 µM. Moreover, the Ki (calculated, read-out: Ki for inhibition of AFC methylation) was 11.6 µM. The “methylation of AFCS” value (even at 500 μM) was “not methylated”. For the same molecule, under “in words”, the “competitive inhibition of AFC methylation” value was “potent competitive inhibitors” and the “substrate activity” value is “lack of activity; also recorded: not substrates”.
Regarding `CC(C)=CCC/C(C)=C/CC/C(C)=C/CSCC(C)C(=O)O` (stereo not drawn) [2-methyl-3-farnesylthiopropionic acid], the Michaelis constant (Km) under setting [2] worked out at 21 µM.
In the case of `C=C(CSC/C=C(\C)CC/C=C(\C)CCC=C(C)C)C(=O)O` [3-farnesylthio-2-methylenepropionic acid], the “status as substrate (in place of Km)” value (Table 1) was “substrate”.
For the molecule `CC(C)=CCC/C(C)=C/CC/C(C)=C/CSCCC(N)=O` [3-farnesylthiopropionamide], under “Table 1”, the “status as conventional inhibitor” value is “inhibitor”.
With `CC(=O)N[C@@H](CSCCC(C)CCCC(C)CCCC(C)C)C(=O)O` (stereo partly drawn) [ATC, N-acetyl-S-(3,7,11-trimethyldodecanyl)-L-cysteine], under “in words”, the “substrate activity” value was “inactive as a substrate; also recorded: lack of activity”.
On to `CC(C)=CCC/C(C)=C/CC/C(C)=C/CSC(C)CC(=O)O` (stereo not drawn) [3-farnesylthiobutyric acid], for which the Ki under setting [1] fell in the range of 30 to 40 µM.
